Experiments:
[1] = test system: Phosphorylation of ERK1/2 in A-427 cells; assay: Phospho-ERK1/2 MSD Assay (A-427 cells); assay type: cell-based; conditions: Homo sapiens, A-427, 2 h, 2 h treatment, read-out: p-ERK (A427 cells) IC50
In short: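 ERK1/2 phosphorylation measured by Meso Scale whole-cell lysate assay after A-427 cells were exposed to a titration of compound for 2 h at 37 °C.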

[2] = test system: Phosphorylation of ERK1/2 in AsPC-1 cells; assay: Phospho-ERK1/2 MSD Assay (AsPC-1 cells); assay type: cell-based; conditions: Homo sapiens, ASPC1, 2 h, 2 hours treatment, read-out: p-ERK (AsPC-1 cells) IC50
In short: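 Read-out: MSD electrochemiluminescent detection of phosphorylated ERK1/2 in whole-cell lysates, fitted to a 4-parameter logistic curve for IC50. Prior to lysis, AsPC-1 cells (25,000 per well) received a 2 h compound dose-response at 37 °C.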

[3] = target: GDP-bound KRAS protein (aa 1-169), containing both G12D and C118A amino acid substitutions (Homo sapiens, UniProt P01116, C118A/G12D); assay: KRAS G12D Coupled Nucleotide Exchange Assay; assay type: biochemical; conditions: 2 h compound pre-incubation
Sequence of GDP-bound KRAS protein (aa 1-169), containing both G12D and C118A amino acid substitutions (P01116 1-169 isoform P01116-2 G12D/C118A): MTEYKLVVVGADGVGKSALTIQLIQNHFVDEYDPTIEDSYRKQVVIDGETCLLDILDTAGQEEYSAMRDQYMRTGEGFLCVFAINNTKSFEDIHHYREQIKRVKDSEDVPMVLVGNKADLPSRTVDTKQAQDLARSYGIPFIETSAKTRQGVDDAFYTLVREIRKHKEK
Protocol: Following compound pre-incubation, purified SOS protein (aa 564-1049) and GTP (Roche 10106399001) were added to the assay wells and incubated for an additional 30 min. […] The assay plates were then read on a PerkinElmer EnVision Multilabel Reader, using AlphaScreen® technology, and data were analyzed using a 4-parameter logistic model to calculate IC50 values.

[4] = target: His-tagged KRAS G12D protein (Homo sapiens, UniProt P01116, G12D); assay: KRAS G12D TR-FRET Assay; assay type: binding
Sequence of His-tagged KRAS G12D protein (P01116 1-188 isoform P01116-2 G12D): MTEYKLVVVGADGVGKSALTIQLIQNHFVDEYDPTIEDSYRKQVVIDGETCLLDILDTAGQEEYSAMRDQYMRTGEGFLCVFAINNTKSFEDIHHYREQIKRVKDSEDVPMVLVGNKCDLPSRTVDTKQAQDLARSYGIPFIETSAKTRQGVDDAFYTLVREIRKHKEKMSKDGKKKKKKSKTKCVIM

| SMILES | IC50 [1] [nM] | IC50 [2] [nM] | Avg 2 h Coupled Exchange IC50 [3] [nM] | IC50 [4] [nM] |
| --- | --- | --- | --- | --- |
| C#Cc1c(F)ccc2cc(O)cc(-c3c(F)cc4c(N5C[C@H]6CC[C@@H](C5)N6)nc(OC[C@@]56CCCN5C[C@H](F)C6)nc4c3F)c12 [Example 189, 4-(4-((1R,5S)-3,8-diazabicyclo[3.2.1]octan-3-yl)-6,8-difluoro-2-(((2R,7aS)-2-fluorotetrahydro-1H-pyrrolizin-7a(5H)-yl)methoxy)quinazolin-7-yl)-5-ethynyl-6-fluoronaphthalen-2-ol] | 1 | 2 | 3 | 4 |
| C#Cc1cccc2cc(O)cc(-c3c(F)cc4c(N5C[C@H]6CC[C@@H](C5)N6)nc(OC[C@@]56CCCN5C[C@H](F)C6)nc4c3F)c12 [Example 190, 4-(4-((1R,5S)-3,8-diazabicyclo[3.2.1]octan-3-yl)-6,8-difluoro-2-(((2R,7aS)-2-fluorotetrahydro-1H-pyrrolizin-7a(5H)-yl)methoxy)quinazolin-7-yl)-5-ethynylnaphthalen-2-ol] | 1 | 4 | 5 | 4 |
| C#Cc1cccc2cc(O)cc(-c3ccc4c(N5C[C@H]6CC[C@@H](C5)N6)nc(OC[C@@]56CCCN5C[C@H](F)C6)nc4c3C)c12 [Example 191, 4-(4-((1R,5S)-3,8-diazabicyclo[3.2.1]octan-3-yl)-2-(((2R,7aS)-2-fluorotetrahydro-1H-pyrrolizin-7a(5H)-yl)methoxy)-8-methylquinazolin-7-yl)-5-ethynylnaphthalen-2-ol] | 4 | 38 | 4 | 3 |
| Cc1c(Cl)cc2[nH]ncc2c1-c1ccc2c(N3C[C@H]4CC[C@@H](C3)N4)nc(OC[C@@]34CCCN3C[C@H](F)C4)nc2c1F [Example 192, 4-((1R,5S)-3,8-Diazabicyclo[3.2.1]octan-3-yl)-7-(6-chloro-5-methyl-1H-indazol-4-yl)-8-fluoro-2-(((2R,7aS)-2-fluorotetrahydro-1H-pyrrolizin-7a(5H)-yl)methoxy)quinazoline] | 150 | 532 | 2 | 4 |
| Fc1c(-c2c(C3CC3)ccc3[nH]ncc23)ccc2c(N3C[C@H]4CC[C@@H](C3)N4)nc(OC[C@@]34CCCN3C[C@H](F)C4)nc12 [Example 193, 4-((1R,5S)-3,8-diazabicyclo[3.2.1]octan-3-yl)-7-(5-cyclopropyl-1H-indazol-4-yl)-8-fluoro-2-(((2R,7aS)-2-fluorotetrahydro-1H-pyrrolizin-7a(5H)-yl)methoxy) quinazoline] | 482 | 1080 | 10 | 15 |
| Fc1c(-c2c(C(F)(F)F)ccc3[nH]ncc23)ccc2c(N3C[C@H]4CC[C@@H](C3)N4)nc(OC[C@@]34CCCN3C[C@H](F)C4)nc12 [Example 194, 4-((1R,5S)-3,8-diazabicyclo[3.2.1]octan-3-yl)-8-fluoro-2-(((2R,7aS)-2-fluorotetrahydro-1H-pyrrolizin-7a(5H)-yl)methoxy)-7-(5-(trifluoromethyl)-1H-indazol-4-yl)quinazoline] | 843 | 815 | 10 | 14 |
| Cc1ccc2[nH]ncc2c1-c1ccc2c(N3C[C@H]4CC[C@@H](C3)N4)nc(OC[C@@]34CCCN3C[C@H](F)C4)nc2c1F [Example 195, 4-((1R,5S)-3,8-diazabicyclo[3.2.1]octan-3-yl)-8-fluoro-2-(((2R,7aS)-2-fluorotetrahydro-1H-pyrrolizin-7a(5H)-yl)methoxy)-7-(5-methyl-1H-indazol-4-yl)quinazoline] | 2380 | 2670 | 17 | 40 |
| Fc1c(-c2c(Cl)ccc3[nH]ncc23)ccc2c(N3C[C@H]4CC[C@@H](C3)N4)nc(OC[C@@]34CCCN3C[C@H](F)C4)nc12 [Example 196, 4-((1R,5S)-3,8-diazabicyclo[3.2.1]octan-3-yl)-7-(5-chloro-1H-indazol-4-yl)-8-fluoro-2-(((2R,7aS)-2-fluorotetrahydro-1H-pyrrolizin-7a(5H)-yl)methoxy) quinazoline] | 1360 | 2310 | 20 | 37 |
| N#Cc1ccc2[nH]ncc2c1-c1ccc2c(N3C[C@H]4CC[C@@H](C3)N4)nc(OC[C@@]34CCCN3C[C@H](F)C4)nc2c1F [Example 197, 4-(4-((1R,5S)-3,8-Diazabicyclo[3.2.1]octan-3-yl)-8-fluoro-2-(((2R,7aS)-2-fluorotetrahydro-1H-pyrrolizin-7a(5H)-yl)methoxy)quinazolin-7-yl)-1H-indazole-5-carbonitrile] | 4030 | > 10000 | 54 | 108 |
| C=C(C)c1ccc2[nH]ncc2c1-c1ccc2c(N3C[C@H]4CC[C@@H](C3)N4)nc(OC[C@@]34CCCN3C[C@H](F)C4)nc2c1F [Example 198, 4-((1R,5S)-3,8-Diazabicyclo[3.2.1]octan-3-yl)-8-fluoro-2-(((2R,7aS)-2-fluorotetrahydro-1H-pyrrolizin-7a(5H)-yl)methoxy)-7-(5-(prop-1-en-2-yl)-1H-indazol-4-yl)quinazoline] | 5270 | 2930 | 18 | 42 |
| CCc1c(F)ccc2cc(O)cc(-c3c(O)cc4c(N5C[C@H]6CC[C@@H](C5)N6)nc(OC[C@@]56CCCN5C[C@H](F)C6)nc4c3F)c12 [Example 199, 4-((1R,5S)-3,8-Diazabicyclo[3.2.1]octan-3-yl)-7-(8-ethyl-7-fluoro-3-hydroxynaphthalen-1-yl)-8-fluoro-2-(((2R,7aS)-2-fluorotetrahydro-1H-pyrrolizin-7a(5H)-yl)methoxy)quinazolin-6-ol] | 9 | 70 | 4 | 3 |
| CCc1c(F)ccc2cc(O)cc(-c3c(O)cc4c(N5[C@@H]6CC[C@H]5CNC6)nc(OC[C@@]56CCCN5C[C@H](F)C6)nc4c3F)c12 [Example 200, 4-((1R,5S)-3,8-diazabicyclo[3.2.1]octan-8-yl)-7-(8-ethyl-7-fluoro-3-hydroxynaphthalen-1-yl)-8-fluoro-2-(((2R,7aS)-2-fluorotetrahydro-1H-pyrrolizin-7a(5H)-yl)methoxy) quinazolin-6-ol] | 11 | 54 | 4 | 4 |
| CCc1c(F)ccc2cc(O)cc(-c3cc4nc(OC[C@@]56CCCN5C[C@H](F)C6)nc(N5C[C@H]6CC[C@@H](C5)N6)c4cc3O)c12 [Example 201, 4-((1R,5S)-3,8-diazabicyclo[3.2.1]octan-3-yl)-7-(8-ethyl-7-fluoro-3-hydroxynaphthalen-1-yl)-2-(((2R,7aS)-2-fluorotetrahydro-1H-pyrrolizin-7a(5H)-yl)methoxy) quinazolin-6-ol] | 16 | 45 | 6 | 3 |
| CCc1c(F)ccc2cc(O)cc(-c3c(N)cc4c(N5C[C@H]6CC[C@@H](C5)N6)nc(OC[C@@]56CCCN5C[C@H](F)C6)nc4c3F)c12 [Example 202, 4-(6-Amino-4-((1R,5S)-3,8-diazabicyclo[3.2.1]octan-3-yl)-8-fluoro-2-(((2R,7aS)-2-fluorotetrahydro-1H-pyrrolizin-7a(5H)-yl)methoxy)quinazolin-7-yl)-5-ethyl-6-fluoronaphthalen-2-ol] | 9 | 175 | 4 | 4 |
| CCc1c(F)ccc2cc(O)cc(-c3cc4nc(OC[C@@]56CCCN5C[C@H](F)C6)nc(N5C[C@H]6CC[C@@H](C5)N6)c4cc3N)c12 [Example 203, 4-(6-Amino-4-((1R,5S)-3,8-diazabicyclo[3.2.1]octan-3-yl)-2-(((2R,7aS)-2-fluorotetrahydro-1H-pyrrolizin-7a(5H)-yl)methoxy)quinazolin-7-yl)-5-ethyl-6-fluoronaphthalen-2-ol] | 62 | 171 | 2 | 6 |
| N#Cc1cccc2cc(O)cc(-c3c(F)cc4c(N5C[C@H]6CC[C@@H](C5)N6)nc(OC[C@@]56CCCN5C[C@H](F)C6)nc4c3F)c12 [Example 204, 8-(4-((1R,5S)-3,8-Diazabicyclo[3.2.1]octan-3-yl)-6,8-difluoro-2-(((2R,7aS)-2-fluorotetrahydro-1H-pyrrolizin-7a(5H)-yl)methoxy)quinazolin-7-yl)-6-hydroxy-1-naphthonitrile] | 26 | 98 | 3 | 2 |
| N#Cc1cccc2cc(O)cc(-c3ccc4c(N5C[C@H]6CC[C@@H](C5)N6)nc(OC[C@@]56CCCN5C[C@H](F)C6)nc4c3F)c12 [Example 205, 8-(4-((1R,5S)-3,8-Diazabicyclo[3.2.1]octan-3-yl)-8-fluoro-2-(((2R,7aS)-2-fluorotetrahydro-1H-pyrrolizin-7a(5H)-yl)methoxy)quinazolin-7-yl)-6-hydroxy-1-naphthonitrile] | 71 | 293 | 7 | 6 |

Source: patent publication US20250059205A1, “Heterocyclic Compounds and Methods of Use” (AMGEN INC., priority 2021, published 2025)
